Test system: −2 DAA WT ovaries
Assay: RNA-seq of −2 DAA WT ovaries treated with 2,4-D vs mock
Type: in vivo, Tomato (Solanum lycopersicum)
Settings: 100 μM 2,4-D, fold change >1.5, p<0.05
Experimental: Tomato plants were grown in greenhouse with 16 h day/8 h night light cycle as described previously (Hu et al.). Parthenocarpy test was done as described previously in Hu et al., with some modifications: −2 DAA flowers on mature tomato plants (2-6 weeks after first flowering) were emasculated and recorded fruit growth 5 weeks later; fruit diameter of at least 1 cm was considered as parthenocarpy. For fruit yield analysis, the number of flowers were counted for each young flower cluster of ˜two-month-old plants, and fruits developed on these clusters were harvested individually and weighed when they were at the red ripe stage. Whole plant phenotypes including plant height, internode numbers and length, and leaf morphology were recorded 5 weeks after sowing. For 2,4-D treatment, 10 μl of 100 μM 2,4-D, or mock solvent (5% MeOH, 0.1% Tween-20) was applied to −2 DAA ovaries of emasculated flowers. All statistical analyses were performed using Student's t-test.
Total RNAs were purified from −2 DAA ovaries of WT and 8a-1 8b-1, as well as −2 DAA WT ovaries treated with 100 μM 2,4-D for 2/6/24 h or mock treated (5% methanol, 0.1% Tween 20). RNA-Seq cDNA libraries (three biological repeats) were prepared with the QuantSeq 3′mRNA-Seq library prep kit FWD for Illumina (Lexogen). DNA sequencing was performed with Illumina Next-Seq500 High-Output 75 bp SR. Sequence alignment and DE (differential expression) analysis were done online at lexogen.bluebee.com. Heatmap was created in RStudio with plotly package. Co-regulated genes among 8a 8b and +2,4-D 2/6/24 h gene lists were then identified (fold change >1.5; p<0.1 for 8a 8b vs. WT; p<0.05 for +2,4-D vs. mock). Venn Diagrams were made using online tool at InteractiVenn.net^53. GO analysis was performed using agriGO v2 toolkit (Tian et al. agriGO v2.0: a GO analysis toolkit for the agricultural community, 2017 update. Nucleic Acids Res 45, W122-W129, (2017)). Heatmap analysis was made in R language with the plotly package. […]

## O=C(O)COc1ccc(Cl)cc1Cl [2,4-D]
2 h treatment vs mock
  number of auxin-responsive differentially expressed genes (DEG): 1731
6 h treatment vs mock
  number of auxin-responsive differentially expressed genes (DEG): 3262
24 h treatment vs mock
  number of auxin-responsive differentially expressed genes (DEG): 3212
